Measurements: ChEMBL document CHEMBL1131518, “Methionine analogues as inhibitors of methionyl-tRNA synthetase” (1998)
Values after ≈ are worked out from the molar mass of the structure shown. Values belong to the molecule of their own block, whether it stands above or below them.

Key:
[1] = target: Methionine--tRNA ligase (Escherichia coli K-12) (UniProt P00959); experiment: Ability to inhibit Escherichia coli methionyl-tRNA synthetase was determined at a concentration of 270 uM
[2] = tested on: Proteus vulgaris; experiment: Antimicrobial activity against Proteus vulgaris 6059 was determined; format: functional
[3] = tested on: Staphylococcus aureus; experiment: Antimicrobial activity against Staphylococcus aureus 1538p was determined; format: functional
[4] = tested on: Enterococcus faecalis; experiment: Antimicrobial activity against Enterococcus faecalis 29212 was determined; format: functional
[5] = tested on: Pseudomonas aeruginosa; experiment: Antimicrobial activity against Pseudomonas aeruginosa 1912E was determined; format: functional
[6] = tested on: Klebsiella pneumoniae; experiment: Antimicrobial activity against Klebsiella pneumoniae 2011E was determined; format: functional
[7] = tested on: Citrobacter freundii; experiment: Antimicrobial activity against Citrobacter freundii 8090 was determined; format: functional
[8] = tested on: Escherichia coli; experiment: Antimicrobial activity against Escherichia coli JM109 was determined; format: functional
[9] = tested on: Salmonella typhimurium; experiment: Antimicrobial activity against Salmonella Typhimurium 14028 was determined; format: functional, Salmonella enterica subsp. enterica serovar Typhimurium; settings: Salmonella enterica
[10] = tested on: Bacillus subtilis; experiment: Antimicrobial activity against Bacillus subtilis ATCC 6633 was determined; format: functional
[11] = tested on: Serratia marcescens; experiment: Antimicrobial activity against Serratia marcescens 1826E was determined; format: functional

Methionine--tRNA ligase (Escherichia coli K-12), sequence (P00959 2-677 limits assumed): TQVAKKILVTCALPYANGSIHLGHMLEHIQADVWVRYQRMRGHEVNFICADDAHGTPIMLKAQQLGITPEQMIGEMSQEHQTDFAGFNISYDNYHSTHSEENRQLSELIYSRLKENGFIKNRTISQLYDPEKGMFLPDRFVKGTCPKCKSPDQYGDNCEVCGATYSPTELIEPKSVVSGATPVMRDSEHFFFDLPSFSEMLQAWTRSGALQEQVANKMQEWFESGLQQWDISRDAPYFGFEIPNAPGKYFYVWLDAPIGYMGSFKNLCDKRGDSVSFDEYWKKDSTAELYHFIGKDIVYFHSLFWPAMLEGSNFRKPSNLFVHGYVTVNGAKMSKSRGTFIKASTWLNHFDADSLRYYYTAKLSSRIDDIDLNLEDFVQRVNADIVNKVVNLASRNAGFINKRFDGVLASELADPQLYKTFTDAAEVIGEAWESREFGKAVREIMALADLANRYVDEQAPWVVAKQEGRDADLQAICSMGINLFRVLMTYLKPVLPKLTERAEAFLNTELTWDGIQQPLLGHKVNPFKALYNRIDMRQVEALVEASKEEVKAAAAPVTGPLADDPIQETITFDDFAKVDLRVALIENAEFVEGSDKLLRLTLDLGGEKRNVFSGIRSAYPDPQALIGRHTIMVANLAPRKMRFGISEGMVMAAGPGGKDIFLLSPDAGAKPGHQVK

SMILES: CSCC[C@H](NC(=O)OC(C)(C)C)C(=O)O
inhibition [1]: 11.3%

SMILES: CSCCO
inhibition [1]: 3.2%

SMILES: CCOC(=O)c1c[nH]nc1CCSC
inhibition [1]: 0%

SMILES: COC(=O)CC(=O)CCSC
inhibition [1]: 0.4%

SMILES: COC(=O)CCSC
inhibition [1]: 3.8%

SMILES: CSCCN1C(=O)c2ccccc2S1(=O)=O
inhibition [1]: 16.3%

SMILES: CSCCC(=O)Cl
inhibition [1]: 14%

SMILES: CSCCc1n[nH]cc1C(=O)O
inhibition [1]: 8.3%

SMILES: CSCCCO
inhibition [1]: 0%

SMILES: CS(=O)(=O)CC[C@H](N)C(=O)NO
inhibition [1]: 0%

SMILES: CSCCC=O
inhibition [1]: 4.7%

SMILES: CSCCC#N
inhibition [1]: 7.8%

SMILES: CSCC[C@H](NC(=O)OC(C)(C)C)C(=O)NO
inhibition [1]: 11.4%

SMILES: CSCCc1cc(O)[nH]n1
inhibition [1]: 1.8%

SMILES: CSCCc1nn[nH]n1
inhibition [1]: 16.2%

SMILES: CSCCCCO
inhibition [1]: 0%

SMILES: CSCCC(=O)O
inhibition [1]: 5.9%

SMILES: CSCC[C@H](NC(=O)OC(C)(C)C)C(=O)NOC(=O)OC(C)(C)C
inhibition [1]: 0%

The next lines start with the values.

MIC [2]: > 128 µg/mL
MIC [3]: > 128 µg/mL
MIC [4]: > 128 µg/mL
MIC [5]: > 128 µg/mL
MIC [6]: > 128 µg/mL
MIC [7]: > 128 µg/mL
MIC [8]: > 128 µg/mL
MIC [9]: > 128 µg/mL
MIC [10]: > 128 µg/mL
MIC [11]: > 128 µg/mL
SMILES: CSCCC(N)C(=O)NO.O=C(O)C(F)(F)F (stereo not drawn)

inhibition [1]: 22.3%
SMILES: CSCCC(N)C(=O)Nc1ccc2ccccc2c1 (stereo not drawn)

inhibition [1]: 56.2%
SMILES: CSCC[C@H](N)C(=O)NOC(C)(C)C

inhibition [1]: 0%
SMILES: CSCC[C@H](N)C(=O)C(C)C

inhibition [1]: 33.5%
SMILES: CSCC[C@H](N)C(=O)Nc1ccc([N+](=O)[O-])cc1

inhibition [1]: 20.4%
SMILES: COC(=O)[C@@H](N)CCSC

inhibition [1]: 0%
SMILES: CSCC[C@H](N)C(=O)Nc1cccc([N+](=O)[O-])c1

inhibition [1]: 8.5%
SMILES: C[S+]([O-])CC[C@H](N)C(=O)NO (stereo partly drawn)

MIC [2]: 4 µg/mL (≈ 24.4 µM)
MIC [3]: > 128 µg/mL
MIC [4]: > 128 µg/mL
MIC [5]: > 128 µg/mL
MIC [6]: > 128 µg/mL
MIC [7]: 8 µg/mL (≈ 48.7 µM)
MIC [8]: 2 µg/mL (≈ 12.2 µM)
MIC [9]: > 128 µg/mL
MIC [10]: > 128 µg/mL
MIC [11]: > 128 µg/mL
SMILES: CSCCC(N)C(=O)NO (stereo not drawn)

MIC [2]: 2 µg/mL
MIC [3]: > 128 µg/mL
MIC [4]: > 128 µg/mL
MIC [5]: > 128 µg/mL
MIC [6]: > 128 µg/mL
MIC [7]: 8 µg/mL
MIC [8]: 1 µg/mL
inhibition [1]: 81.5%
MIC [9]: > 128 µg/mL
MIC [10]: > 128 µg/mL
MIC [11]: > 128 µg/mL
SMILES: CSCC[C@H](N)C(=O)NO.O=C(O)C(F)(F)F

inhibition [1]: 17.8%
SMILES: CSCC[C@H](N)C(N)=O

inhibition [1]: 23.1%
SMILES: CSCC[C@H](N)C(=O)NCO
